The source of these data is patent US5578315A, “Mucosal adhesive device for long-acting delivery of pharmaceutical combinations in oral cavity” (Rutgers, The State University of New Jersey, priority 1993, dated 1996).

Converted amounts (≈) assume the structure as drawn.

A short description of this series: Solubility in isotonic phosphate buffer containing PEG 400. Format: physicochemical. Here is the method: For use of clotrimazole, solubility in phosphate buffer is an issue and therefore, 20% and 40% PEG 400 are added to the phosphate buffer and the solubility is determined.

`Clc1ccccc1C(c1ccccc1)(c1ccccc1)n1ccnc1` [clotrimazole, Clotrimazole]: the solubility – broadly, the dissolved amount per volume that the medium holds – runs as follows: (organic solvent or mixture, isotonic phosphate buffer (pH 6.8) containing 20% PEG 400) around 60 µg/mL (≈ 174 µM); (pH 6.8, organic solvent or mixture, phosphate buffer containing 40% PEG 400) around 430 µg/mL (≈ 1250 µM).
